Type in all cases: functional
In one assay the test system is Nakaseomyces glabratus. Briefly: Antifungal activity against Candida glabrata Tu04 assessed as fungal growth inhibition incubated for 48 hrs by broth microdilution method.
Assay [1] deals with Mycobacterium tuberculosis. Briefly: Antitubercular activity against Mycobacterium tuberculosis H37Rv ATCC 25618 assessed as bacterial growth inhibition incubated for 7 days by resazurin microtiter assay. To be noted: H37Rv ATCC 25618, 168 h, time 7 day. (In general: Resazurin is reduced to fluorescent resorufin, in cell work by metabolically active cells.)
Assay [2] has as its system Escherichia coli. The assay can be described thus: Antibacterial activity against Escherichia coli ATCC 25922 assessed as bacterial growth inhibition incubated over night by two-fold serial dilution method.
Assay [3] concerns Escherichia coli. The assay can be described thus: Antimicrobial activity against Escherichia coli MRE600 assessed as inhibition of translation using luciferin as substrate incubated for 2 hrs by chemiluminescence based cell free assay. To be noted: MRE600, 2 h.
Assay [4] has as its system Mycolicibacterium smegmatis. Briefly: Antibacterial activity against Mycobacterium smegmatis mc2 155 assessed as bacterial growth inhibition incubated over night by two-fold serial dilution method.
A further assay relates to Acinetobacter baumannii. Briefly: Antibacterial activity against Acinetobacter baumannii 09987 assessed as bacterial growth inhibition incubated over night by two-fold serial dilution method.
In the next assay the test system is Bacillus subtilis. The assay can be described thus: Antibacterial activity against Bacillus subtilis 168 assessed as bacterial growth inhibition incubated over night by two-fold serial dilution method.
Another assay concerns HeLa. Briefly: Cytotoxicity against human HeLa cells assessed as reduction in cell viability after 24 hrs by resazurin dye based assay.
For assay [5], the system named is Staphylococcus aureus. The assay can be described thus: Antibacterial activity against Staphylococcus aureus NCTC 8325 assessed as bacterial growth inhibition incubated over night by two-fold serial dilution method.
The test system of a further assay is Klebsiella aerogenes. Briefly: Antibacterial activity against Enterobacter aerogenes ATCC 13048 assessed as bacterial growth inhibition incubated over night by two-fold serial dilution method.
In the next assay the test system is Pseudomonas aeruginosa. The assay can be described thus: Antibacterial activity against Pseudomonas aeruginosa ATCC 27853 assessed as bacterial growth inhibition incubated over night by two-fold serial dilution method.
For assay [6], the system named is Staphylococcus aureus. The assay can be described thus: Antibacterial activity against Staphylococcus aureus ATCC 29213 assessed as bacterial growth inhibition incubated over night by two-fold serial dilution method.
A further assay relates to Enterococcus faecium. Briefly: Antibacterial activity against Enterococcus faecium BM4147-1 assessed as bacterial growth inhibition incubated over night by two-fold serial dilution method.
For a further assay, the system named is Klebsiella pneumoniae. Briefly: Antibacterial activity against Klebsiella pneumoniae ATCC 12657 assessed as bacterial growth inhibition incubated over night by two-fold serial dilution method.
In the next assay the test system is Candida albicans. Briefly: Antifungal activity against Candida albicans Tu01 assessed as fungal growth inhibition incubated for 48 hrs by broth microdilution method. A general note: In broth dilution the organism is exposed to a series of concentrations in liquid medium.

≈ marks a conversion by molar mass, not a printed value.

As for `CS/C=C/C(=O)Nc1ccn([C@H]2CC[C@H](O[C@H]3O[C@H](C)[C@@H](N(C)C)[C@H](O)[C@H]3O)[C@@H](C)O2)c(=O)n1`, the minimum inhibitory concentration (MIC) was above 32 µg/mL in the assay on Nakaseomyces glabratus; above 32 µg/mL in the assay with Escherichia coli [2]; 4 µg/mL (≈ 8.02 µM) in assay [4]; above 32 µg/mL in the assay with Acinetobacter baumannii; 8 µg/mL (≈ 16 µM) with Bacillus subtilis; 16 µg/mL (≈ 32.1 µM) in the assay on Staphylococcus aureus [5]. Moreover, the MIC in the assay with Klebsiella aerogenes was above 32 µg/mL; in the assay on Pseudomonas aeruginosa, above 32 µg/mL; in the assay with Staphylococcus aureus [6], 16 µg/mL (≈ 32.1 µM); with Enterococcus faecium, above 32 µg/mL; in the assay on Klebsiella pneumoniae it was above 32 µg/mL; with Candida albicans, above 32 µg/mL. In [1], the MIC95 came to 8 µM (≈ 3.99 µg/mL). The IC50 in the assay on Escherichia coli [3] and in the assay with HeLa was 1 µg/mL (≈ 2.01 µM) in each case.

As for `CC(C)=CC(=O)Nc1ccn([C@H]2CC[C@H](O)[C@@H](C)O2)c(=O)n1`, the minimum inhibitory concentration (MIC) (with Nakaseomyces glabratus; in the assay with Escherichia coli [2]; in assay [4]; in the assay on Acinetobacter baumannii; with Bacillus subtilis; in the assay with Staphylococcus aureus [5]) was above 32 µg/mL throughout. Besides, the MIC in the assay with Klebsiella aerogenes, in the assay on Pseudomonas aeruginosa, in the assay with Staphylococcus aureus [6], with Enterococcus faecium, in the assay on Klebsiella pneumoniae and in the assay on Candida albicans was above 32 µg/mL in each case. The IC50 in the assay with HeLa is above 64 µg/mL.

As to `CC(=O)C(C)Nc1ccc(C(=O)Nc2ccn([C@H]3CC[C@H](O[C@H]4O[C@H](C)[C@@H](N(C)C)[C@H](O)[C@H]4O)[C@@H](C)O3)c(=O)n2)cc1` (stereo not given in full), the minimal inhibitory concentration (MIC) was above 32 µg/mL in the assay with Nakaseomyces glabratus; above 32 µg/mL in the assay on Escherichia coli [2]; 2 µg/mL (≈ 3.4 µM) in assay [4]; above 32 µg/mL in the assay on Acinetobacter baumannii; above 32 µg/mL with Bacillus subtilis; above 32 µg/mL in the assay with Staphylococcus aureus [5]. Further, the MIC in the assay on Klebsiella aerogenes, in the assay with Pseudomonas aeruginosa, with Staphylococcus aureus [6], in the assay on Enterococcus faecium, in the assay on Klebsiella pneumoniae and in the assay on Candida albicans was above 32 µg/mL each time. Besides, the MIC95 in assay [1] worked out at 32 µM (≈ 18.8 µg/mL). In addition, the figures for the IC50 in the assay with Escherichia coli [3] and in the assay with HeLa were 13 µg/mL (≈ 22.1 µM) and 16 µg/mL (≈ 27.2 µM), respectively.

Take `C[C@H]1O[C@H](O[C@H]2CC[C@H](n3ccc(NC(=O)c4ccc(N)c(F)c4)nc3=O)O[C@@H]2C)[C@H](O)[C@@H](O)[C@@H]1N(C)C`: the minimum inhibitory concentration (MIC) with Nakaseomyces glabratus, with Escherichia coli [2], in the assay with Acinetobacter baumannii, in the assay with Bacillus subtilis, in the assay on Staphylococcus aureus [5] and in the assay on Klebsiella aerogenes was above 32 µg/mL each time. Further, the minimum inhibitory concentration (MIC) with Pseudomonas aeruginosa, with Staphylococcus aureus [6], with Enterococcus faecium, with Klebsiella pneumoniae and with Candida albicans was above 32 µg/mL each time. Besides, in the assay with HeLa, the IC50 is above 64 µg/mL.

Take `CC[C@H](C)C(=O)Nc1ccn([C@H]2CC[C@H](O)[C@@H](C)O2)c(=O)n1`: the minimal inhibitory concentration (MIC) (in the assay on Nakaseomyces glabratus; with Escherichia coli [2]; in [4]; in the assay with Acinetobacter baumannii; in the assay with Bacillus subtilis; with Staphylococcus aureus [5]) was above 32 µg/mL in each case. The MIC with Klebsiella aerogenes, with Pseudomonas aeruginosa, in the assay with Staphylococcus aureus [6], with Enterococcus faecium, with Klebsiella pneumoniae and in the assay with Candida albicans was above 32 µg/mL throughout. In addition, the IC50 with HeLa was above 64 µg/mL.

As for `C[C@H]1O[C@H](O[C@H]2CC[C@H](n3ccc(NC(=O)c4ccc(N)cc4)nc3=O)O[C@@H]2C)[C@H](O)[C@@H](O)[C@@H]1N(C)C`, the MIC in the assay with Nakaseomyces glabratus was above 32 µg/mL; in the assay with Escherichia coli [2], above 32 µg/mL; in assay [4] it was 2 µg/mL (≈ 3.86 µM); with Acinetobacter baumannii it was above 32 µg/mL; in the assay on Bacillus subtilis, 32 µg/mL (≈ 61.8 µM); in the assay with Staphylococcus aureus [5], above 32 µg/mL. Besides, the MIC in the assay with Klebsiella aerogenes, in the assay with Pseudomonas aeruginosa, with Staphylococcus aureus [6], in the assay on Enterococcus faecium, in the assay with Klebsiella pneumoniae and with Candida albicans was above 32 µg/mL throughout. The MIC95 in assay [1] worked out at 16 µM (≈ 8.28 µg/mL). Besides, the half-maximal inhibitory concentration (IC50) worked out at 12 µg/mL (≈ 23.2 µM) in the assay on Escherichia coli [3] and 16 µg/mL (≈ 30.9 µM) in the assay on HeLa.

As for `CC(C)=CC(=O)Nc1ccn([C@H]2CC[C@H](O[C@H]3O[C@H](C)[C@@H](N(C)C)[C@H](O)[C@H]3O)[C@@H](C)O2)c(=O)n1`, the minimum inhibitory concentration (MIC) in the assay with Nakaseomyces glabratus is above 32 µg/mL; in the assay with Escherichia coli [2] it was above 32 µg/mL; in assay [4], 4 µg/mL (≈ 8.32 µM); in the assay on Acinetobacter baumannii, above 32 µg/mL; in the assay on Bacillus subtilis, 32 µg/mL (≈ 66.6 µM); in the assay with Staphylococcus aureus [5], above 32 µg/mL. Besides, the MIC with Klebsiella aerogenes, with Pseudomonas aeruginosa, in the assay with Staphylococcus aureus [6], with Enterococcus faecium, with Klebsiella pneumoniae and in the assay with Candida albicans was above 32 µg/mL each time. Also, the MIC95 in [1] is 32 µM (≈ 15.4 µg/mL). Moreover, the half-inhibitory concentration (IC50) came out at 1.6 µg/mL (≈ 3.33 µM) with Escherichia coli [3] and 2 µg/mL (≈ 4.16 µM) in the assay with HeLa.

For `CC(C)CC(=O)Nc1ccn([C@H]2CC[C@H](O)[C@@H](C)O2)c(=O)n1`, the MIC (with Nakaseomyces glabratus; in the assay with Escherichia coli [2]; in assay [4]; with Acinetobacter baumannii; with Bacillus subtilis; in the assay on Staphylococcus aureus [5]) was above 32 µg/mL in each case. For the same molecule, the minimum inhibitory concentration (MIC) in the assay with Klebsiella aerogenes, in the assay with Pseudomonas aeruginosa, with Staphylococcus aureus [6], with Enterococcus faecium, with Klebsiella pneumoniae and in the assay with Candida albicans was above 32 µg/mL throughout. Moreover, the IC50 with HeLa was above 64 µg/mL.

As to `CC[C@H](C)CCC(=O)Nc1ccn([C@H]2CC[C@H](O[C@H]3O[C@H](C)[C@@H](N(C)C)[C@H](O)[C@H]3O)[C@@H](C)O2)c(=O)n1`, the minimum inhibitory concentration (MIC) in the assay with Nakaseomyces glabratus was above 32 µg/mL; in the assay with Escherichia coli [2], above 32 µg/mL; in [4], 16 µg/mL (≈ 31.3 µM); with Acinetobacter baumannii, above 32 µg/mL; with Bacillus subtilis it was above 32 µg/mL; in the assay with Staphylococcus aureus [5], above 32 µg/mL. For the same molecule, the MIC with Klebsiella aerogenes, in the assay on Pseudomonas aeruginosa, with Staphylococcus aureus [6], in the assay on Enterococcus faecium, in the assay on Klebsiella pneumoniae and in the assay on Candida albicans was above 32 µg/mL in each case. Further, the 50% inhibitory concentration (IC50) with Escherichia coli [3] was 9.5 µg/mL (≈ 18.6 µM); in the assay on HeLa, above 64 µg/mL.

By MIC is commonly meant the lowest concentration that inhibits growth of the organism. Broadly, the IC50 is the concentration that inhibits the measured activity by half.
